Data: PMC8765781, “A platform of assays for the discovery of anti-Zika small-molecules with activity in a 3D-bioprinted outer-blood-retina model” (PLoS ONE, 2022)
Where two headings read alike, the source gives them in different places. Where a SMILES comes first, the peptide text is derived from it. [ ]: non-standard residue; d: D form. ξ: configuration not given here. ξLac(3-iPr) = CC(C)CC(O)C(=O)O; NMeV = CN[CH](C(=O)O)C(C)C; NMeA = CN[CH](C)C(=O)O; βAla = NCCC(=O)O

System: wild-type ZIKV (Ugandan MR766 strain) in Vero cells
Assay: ZIKV cytopathic effect (CPE) inhibition qHTS assay, CellTiter-Glo readout
Type: cell-based, Zika virus
Settings: for Emax: read-out: Max response
[1] = Zika virus, Vero, read-out: Log AC50 (M) (converted)
[2] = Zika virus, Vero, read-out: Log AC50 (converted)
[3] = Zika virus, Vero, from Hill fit of the response curve, 50% of maximum activity response, 194 cherry-picked compounds, protocol name not given, read-out: AC50
[4] = Zika virus, Vero, potency in log units (Molar) from Hill fit of the response curve, 194 cherry-picked compounds, protocol name not given, read-out: Log AC50 (converted)
[5] = difference between neutral response and maximum compound response

SMILES | CC-v2 (curve class classification of the dose response curve) | Efficacy | AC50 (Zika virus, Vero) [M] | AC50 [1] [M] | also measured
COc1ccc(CC2C(=O)NC(C)C(=O)N(C)C3Cc4ccc(cc4)Oc4cc(ccc4OC4OC(CO)C(O)C(O)C4O)CC(C(=O)NC(C)C(=O)NC(CCC(=O)O)C(=O)N2C)N(C)C3=O)cc1 (centres unmarked) [NCGC00385295-01] | -2.2 | -76.149 | 4.91e-06 | 4.91e-06 | 
COc1cccc(C)c1C(=O)O[C@@H]1C[C@H](O[C@H]2[C@H](O)C[C@H](O[C@@H]3CCC[C@H]4[C@H]3C=C[C@@H]3CCCC/C=C/[C@H]5C=C(C(=O)O)[C@@H](C)C[C@@]56OC(=O)C(=C6O)OC(=O)[C@@]34C)O[C@@H]2C)O[C@H](C)[C@H]1O [NCGC00386109-01] |  | -37.18 | 1.23e-05 | 1.23e-05 | 
C=C1CC2OC(=O)C(=C)C2C(OC(=O)/C(C)=C\C)CC2(C)OC1=CC2=O (centres unmarked) [NCGC00384607-01] | -3 | -115.469 | 4.53e-05 | 4.53e-05 | 
C/C=C(/C)C(=O)O[C@H]1C=C(CO)C(=O)[C@H](OC(=O)/C(C)=C/CO)[C@H]1C(C)C [NCGC00169078-03] | -3 | -32.45 | 5.08e-05 | 5.08e-05 | 
O=C(c1cn(Cc2cncn2Cc2ccc(Br)cc2)cc1-c1cccc2ccccc12)N1CCOCC1 [NCGC00370772-05] | -2.2 | -38.989 | 3.66e-05 | 3.66e-05 | 
CC(=O)O[C@@]1(C)C[C@@H](O)[C@]2(O)C=CO[C@@H](O[C@@H]3O[C@H](CO)[C@@H](O)[C@H](O)[C@H]3O)[C@@H]21 [NCGC00169032-03] |  | -81.683 | 1.42e-05 |  | Curve class: -3; AC50 [2]: 1.42e-05 M; Emax (Zika virus, Vero): 1.21%
C/C=C(\C)C(=O)O[C@H]1C=C(CO)C(=O)[C@H](OC(C)=O)[C@H]1C(C)C [NCGC00180769-03] | -3 | -32.712 | 4.53e-05 | 4.53e-05 | 
C=CC(=O)Nc1ccc2ncnc(Nc3cccc(Br)c3)c2c1 [NCGC00386260-02] |  | -35.975 | 7.31e-05 |  | Curve class: -3; AC50 [2]: > 4.6e-05 M; Emax (Zika virus, Vero): -31.6%
C[C@H]1C(=O)N2c3ccccc3[C@@]3(O)C[C@@H]4C(=O)N[C@](C)(c5nc6ccccc6c(=O)n54)N1[C@@H]23 [NCGC00169614-02] |  | -78.987 | 1.59e-05 |  | Curve class: -3; AC50 [2]: 1.59e-05 M; Emax (Zika virus, Vero): 0.173%
CC(=O)OC[C@]12C[C@H](OC(C)=O)C(C)=C[C@H]1O[C@@H]1[C@H](O)[C@@H](O)[C@@]2(C)[C@]12CO2 [NCGC00381306-01] |  | -39.385 |  |  | Log AC50 (M): -5.644 M; Max Resp: -23.356; AC50 (read-out: AC50): 2.27e-06 M
CCOCCn1nc(CC)c2nc(N3CCC(C(=O)O)CC3)nc(Nc3cc(C)ccn3)c21 [NCGC00386619-01] |  | -25.995 | 4.11e-05 | 4.11e-05 | 
CCOC(=O)C1=C(N)Oc2ccc(Br)cc2C1C(C#N)C(=O)OCC (centres unmarked) [NCGC00025207-15] |  | -30.652 |  | 7.31e-05 | 
O=C1c2c(O[C@@H]3O[C@H](CO)[C@@H](O)[C@H](O)[C@H]3O)cc(O)cc2OC1(O)Cc1ccc(O)cc1 (some centres unmarked) [NCGC00168800-03] | -3 | -41.876 | 3.17e-05 | 3.17e-05 | 
C[C@@H]1CCC2C(C)(C)[C@H](O)CC[C@]2(C)[C@@]12Cc1c(O)cc3c(c1O2)CN(CCO)C3=O (some centres unmarked) [NCGC00381123-01] | -3 | -75.159 | 8.93e-06 | 8.93e-06 | 
COc1cc(O)c2c(c1)/C=C/C[C@H](O)[C@H](O)C(=O)/C=C\C[C@H](C)OC2=O [NCGC00186421-07] | -3 | -83.256 |  |  | 
COc1cc2occc2c(O[C@@H]2O[C@H](CO)[C@@H](O)[C@H](O)[C@H]2O)c1CCC(=O)O [NCGC00168932-02] | -3 | -83.984 | 1.59e-05 | 1.59e-05 | 
CCC(=C(c1ccc(OCCN2CCCC2)cc1)c1ccc(OCCN2CCCC2)cc1)c1ccccc1 [NCGC00408918-01] | -3 | -39.621 | 5.8e-05 | 5.8e-05 | 
CCC(C)C1NC(=O)C2CCCN2C(=O)C(CC(C)C)OC(=O)CCNC(=O)C(C)N(C)C(=O)C(C(C)C)N(C)C1=O (centres unmarked) [NCGC00169957-03] (cyclo([ξLac(3-iPr)]PI[NMeV][NMeA][βAla]); configuration not given here) | -2.2 | -56.609 | 1.93e-05 | 1.93e-05 | 
CCN(CC)C(=O)c1ccc(Nc2nc(OCC3CCCCC3)c3nc[nH]c3n2)cc1 [NCGC00370819-01] |  | -42.267 | 4.61e-05 | 4.61e-05 | 
COc1c(Cl)cc2c([nH]c3cnccc32)c1NC(=O)c1cccnc1C [NCGC00263021-04] | -2.2 | -34.501 | 6.51e-05 | 6.51e-05 | 

SMILES | CC-v2 (curve class classification of the dose response curve) | Efficacy | AC50 (Zika virus, Vero) [M] | AC50 [1] [M] | also measured
CC1=CC(=O)[C@@H](O)[C@@]2(C)C1C[C@H]1OC(=O)[C@H](O)[C@@]3(O)[C@@H](C)[C@@H](O)[C@H](O)C2[C@@]13C (some centres unmarked) [NCGC00347801-02] | -1.2 | -51.479 | 1.43e-05 | 1.43e-05 | 
COC(=O)[C@@]1(C)C(=O)C=C[C@]2(C)c3c(O)cc(C(C)C)cc3[C@H](O)[C@@H](OC(C)=O)C12 (some centres unmarked) [NCGC00385132-01] | -3 | -68.661 | 1.42e-05 | 1.42e-05 | 
CC1(C)C=CN2C(=O)C3=CCCN3C(=O)[C@@H]2C[C@@]12Nc1ccccc1C2=O [NCGC00380729-01] |  | -25.178 | 4.53e-05 | 4.53e-05 | 
C=C(C)C(=O)OC1CC2(C)OC(=CC2=O)C(=C)CC2OC(=O)C(=C)C12 (centres unmarked) [NCGC00381113-01] |  |  |  |  | AC50 [3]: 2.02e-05 M; AC50 [4]: 2.02e-05 M; Efficacy [5]: -29.164
OCCCNc1cc(-c2ccnc(Nc3cccc(Cl)c3)n2)ccn1 [NCGC00346940-02] | -2.1 | -105.653 | 6.51e-05 | 6.51e-05 | 
CC(=O)OC12C(O)C(C)C3(O)C4C=C(C)C(=O)C4CC(CO)=CC3C1C2(C)C (centres unmarked) [NCGC00385123-01] | -3 | -66.621 | 1.12e-05 | 1.12e-05 | 
COC1CCCC(C)OC(=O)Cc2cc(O)cc(O)c2C(=O)C1 (centres unmarked) [NCGC00384664-01] |  |  |  |  | AC50 [3]: 4.53e-05 M; AC50 [4]: 4.53e-05 M; CC-v2 (curve class classification of the dose response curve) (curve class v2 (Inglese et al. 2006)): -3; Efficacy [5]: -54.826
C[C@H]1[C@H](C)CC[C@]2(C(=O)O)CC[C@]3(C)C(=CC[C@@H]4[C@@]5(C)C[C@@H](O)[C@H](O)[C@@](C)(CO)[C@@H]5CC[C@]43C)[C@H]12 [NCGC00346584-02] |  | -33.569 | 5.8e-05 | 5.8e-05 | 
Nc1cccc(CNC(=O)c2ccc(Oc3ccc(OCc4cccc(F)c4)cc3)nc2)c1 [NCGC00379156-01] |  | -30.412 | 7.31e-05 | 7.31e-05 | 
CN(C)c1cccc(-c2c3c(=O)n(-c4ccccc4Cl)[nH]c3cc(=O)n2C)c1 [NCGC00378460-08] |  | -22.536 | 2.91e-05 | 2.91e-05 | 
CC(C)c1c(O)ccc2c1CC[C@H]1C(C)(C)CCC[C@]21C [NCGC00385162-01] |  | -41.688 | 5.8e-05 |  | Curve class: -3; AC50 [2]: 5.8e-05 M; Emax (Zika virus, Vero): -36.8%
COc1cc(N(C)CCN(C)C)c(N)cc1Nc1nccc(-c2cn(C)c3ccccc23)n1 [NCGC00390638-01] | -3 | -48.353 | 6.51e-05 | 6.51e-05 | 
O=C1N(CC2CCCCN2)CCN1c1ccccc1 (centres unmarked) [NCGC00370981-01] | -3 | -38.034 | 2.91e-05 | 2.91e-05 | 
CN(C)CC1CCn2c(c(C3=C(c4cn(C)c5ccccc45)C(=O)NC3=O)c3ccccc32)C1 (centres unmarked) [NCGC00163696-04] |  | -28.697 | 3.26e-05 | 3.26e-05 | 
CC(=O)OC[C@]12C[C@H](O)C(C)=C[C@H]1O[C@@H]1[C@H](O)[C@@H](O)[C@@]2(C)[C@]12CO2 [NCGC00380760-01] | -1.2 | -57.268 |  |  | Log AC50 (M): -4.894 M; Max Resp: -47.163; AC50 (read-out: AC50): 1.28e-05 M
Cc1cc(C(=O)Nc2cc(Nc3ccc4c(/C=C/c5ccccn5)[nH]nc4c3)ccc2F)n(C)n1 [NCGC00387023-01] |  | -55.32 | 3.66e-05 | 3.66e-05 | 
CC1CCC2C(C)(C)C(O)CCC2(C)C12Cc1c(O)cc3c(c1O2)CNC3=N (centres unmarked) [NCGC00386084-01] |  | -59.279 | 5.08e-07 | 5.08e-07 | 
C=C(C)[C@@H]1CC=C(COC(=O)NC(=O)c2ncn3c(=O)n(C)nnc23)CC1 [NCGC00386754-01] | -3 | -41.908 | 6.51e-05 | 6.51e-05 | 
Cc1cc2c(F)c(Oc3ncnn4cc(OCC(C)OC(=O)C(C)N)c(C)c34)ccc2[nH]1 (centres unmarked) [NCGC00389340-01] |  | -57.426 |  |  | Curve class: -3; Emax (Zika virus, Vero): -49.7%
COC(=O)[C@]12CCC(C)(C)C[C@H]1[C@H]1C(=O)C=C3[C@@]4(C)C=C(C#N)C(=O)C(C)(C)[C@@H]4CC[C@@]3(C)[C@]1(C)CC2 [NCGC00186460, bardoxolone methyl, reference compound] |  |  |  |  | Identified as active in CPE assay validation set: identified
